Results from patent US7214535B2, “Glyphosate-tolerant 5-enolpyruvylshikimate-3-phosphate synthase and the gene encoding the same” (Peking University, priority 2002, dated 2007).

System: strain 4G-1
Assay: Growth of isolated strain 4G-1 on media comprising glyphosate or Ampicillin
Type: cell-based, Pseudomonas putida
Experimental: The sample were taken from neighborhood of a glyphosate producing factory in Hebei Province, China, and were diluted and spread on mediums comprising glyphosate. A total of 48 strains are isolated with high tolerance and degradation ability to glyphosate. One strain of them, 4G-1, is able to grow on a medium with 400 mM glyphosate, and is resistant to 100 mg/L Ampicillin. Said strain is selected for further studies.
The resulting products are purified by a purification method for PCR product, and are ligated to a T vector (Takara, Dalian) according to the instruction of manufacturer Takara to obtain plasmid pKU2000. […] Using BLAST software and BLASTP 2.2.2 [Dec. […] Thus, strain 4G-1 is thought to be P. putida, and is designated as P. putida 4G-1 (abbreviated as P. P4G-1). Said strain is deposited on Apr. 30, 2002 at the Chinese General Microbiological Culture Centre (CGMCC) (ZhongGuan Cun, Beijing, China) with the accession number CGMCC 0739.

SMILES	growth of strain 4G-1 on medium with glyphosate (400 mM glyphosate)	resistance of strain 4G-1 to Ampicillin (100 mg/L Ampicillin)
O=C(O)CNCP(=O)(O)O [glyphosate, N-phosphylmethyl glycine]	able to grow	–
CC1(C)S[C@@H]2[C@H](NC(=O)[C@H](N)c3ccccc3)C(=O)N2[C@H]1C(=O)O [Ampicillin]	–	resistant
